Source: patent US20070059385A1, “Safe pharmaceutical composition for treating and preventing cancer and method of use” (priority 2005, published 2007)

Assays:
[1] = system: NNK-induced lung tumorigenesis; assay: NNK-induced lung tumorigenesis; type: in vivo; details: mice; drug 20 mg/kg daily by injection; 10 μmol NNK i.p.; pulmonary adenomas after sixteen weeks
Description: Every group had 20 mice. […] For control group, each mouse was gave same volume of physiological saline. Three days later, mice were gave 10 μmol NNK (in 0.1 ml saline) by i.p. injection. Sixteen weeks after these treatments the mice were killed and pulmonary adenomas were counted. The statistical significance of bioassay data was determined by student's test.

[2] = system: Human leukemia cells (HL-60); assay: Apoptosis of human leukemia cells; type: cell-based
Description: Human leukemia cells (HL-60) were grown in RPMI Medium 1640 supplemented with 10% (v/v) heat-inactivated FBS (56° C. for 30 min) at 37° C. in a humidified 95% air/5% CO2 atmosphere. Cells were seeded at a level of 2×10^5 cells/ml. Cells were allowed to attain a maximum density of 1.2×10^6 cells/ml before being passed by dilution into fresh medium to a concentration of 2×10^5 cells/ml. […]
For evaluation of apoptosis by flow cytometry, cells were fixed and permeabilized in 1% paraformaldehyde and ice-cold 70% ethanol. Digoxigenin-dUTP was incorporated at the 3′OH ends of the fragmented DNA in the presence of terminal deoxynucleotidyltranserase, and the cells were incubated with FITC-labeled anti-digoxigenin-dUTP and with propidium iodide. Green (apoptotic cells) and orange (total DNA) fluorescence were measured with a FACScan flow cytometer and analyzed with LYSIS II and CELLFIT programs. Data were analyzed by Student's t-test. P values were considered significant when <0.05. […]
Apoptosis of HL-60 cells was assessed by changes in cell morphology and by measurement of DNA nicks using the Apop Tag Kkt (Oncor, Gaithersburg, Md.). […] These features make apoptotic cells relatively easy to distinguish from necrotic cells. These changes are detected on cytospin preparations stained with Diff-Quick Stain Set. Apoptotic cells were enumerated in a total of about 300 cells by light microscopy.

[3] = system: kidney cell cultures; assay: Analysis of chromosomes (chromosomal aberrations in kidney); type: in vivo
Description: For metaphase chromosomes, kidney cell cultures were treated with colchicines (0.4 μg/ml) for 3-4 hours. The cells were then trypsinized and treated with hypotonic solution (0.075 M KCl) at 37° C. for 30 minutes. The cell suspensions were centrifuged and the pellets fixed in cold acetic acid:methanol (1:3) solution. Slides were prepared by standard air-drying method and stained with 2% Giemsa solution. The results scored by analyzing at least 200 well spread metaphases with 44±2 chromosomes for gaps, chromatid and chromosome breaks and exchanges, and association. Chromatid and chromosome aberrations were scored separately, and the total percentage was subjected to statistical analysis. Gaps were recorded but not included in the total frequency. Endoreduplication (endomitosis) was estimated from at least 500 cells/animal and expressed as a percentage.

[4] = system: carcinogen-DNA binding; assay: Inhibition of carcinogen-DNA binding; type: cell-based
Description: Cells were maintained in 75-cm^2 tissue culture flask with media supplemented with retinoic acid (0.1 μg/ml) and epinephrine (0.5 μg/ml). The cells were passage when they reached approximately 80% confluence and were maintained at 37° C. in 5% CO2. Cells were plated at a density of 5×10^5 cells/well in 6-well tissue culture plates and allowed to incubated for 18 h at 37° C. in 5% CO2. Following incubation, the DNA was harvested and resuspended in Tris-EDTA buffer. RNA was removed by treating with RNase T1 and RNase A at 37° C. for 1 h. An aliquot was used for determining the DNA content by the absorbency at 260 nm, and the rest of the sample was used to determine the radioactivity; the percentage inhibition of carcinogen-DNA binding was determined by measuring the cpm/mg of DNA in the carcinogen.

[5] = system: HL-60 cells; assay: Induction of differentiation (NBT reduction) of human leukemic cells; type: cell-based; details: Mu, GU, MAT, IND 50 ng/ml, higher NBT (%) means higher normal cells
Description: HL-60 cells were established from a patient with acute myeloid leukemia. The cells were cultured in culture flasks with RPMI plus 10% FCS.
Differentiation of HL-60 cells was assessed by their abilities to produced superoxide as measured by reduction of NBT, by NSE staining and by morphology as detected on cytospin preparations stained with Diff-Quick stain Set, and by analysis of membrane-bound differentiation markers with two-color immunofluorescence. Briefly, cells were preincubated at 4° C. for 60 min in 10% human AB serum and then with FITC-conjugated mouse IgGI isotype control. Analysis of fluorescence was performed on a flow cytometer.
HL-60 cells were culture in a two-layer soft agar system for 10 days without adding any growth factors as described previously, and colonies were counted using an inverted microscope. The analogues were added to the agar upper layer on day 0. For analysis of the reversibility of inhibition of proliferation, the cells were cultured in suspension culture with and without HHT or other drugs. After 60 hours, the culture flasks were gently jarred to loosen adherent cells, the cells were washed twice in cultured medium containing 10% FCS to remove the test drugs, and then the clonogenic assay was performed. NBT% indicated percentage of normal cells.

[6] = system: TA100; assay: Salmonella mutagenicity assay TA100
Description: The method for detecting mutagenicity of HHT, with the Salmonella system that detects the reversion of the bacteria from His^− to His^+, is widely used.
The bacterial tester strains used for mutagenesis testing are TA97, TA98, TA100 and TA102. Mutagenesis testing method was done as described previously ^[77-88]. In brief, TA97, TA98, TA100 and TA102 were grown in agar gel culture. The petri plats (100×15 mm style) contain 30 ml with 2% glucose. The agar mixture was agitated vigorously and immediately poured into plates of minimal agar. The cultures were incubated at 37° C. in a dark and 5% CO2 in air for 48 hours. After 48 hours the colonies in both test and controls are counted. The presence of a background lawn of bacteria on the histidine-poor soft agar plate was used as an indication that gross toxic effects were absent. Mutagenicity assays were carried out at least in triplicate.
The range of spontaneous mutation rates for the individual strains, which were considered to be acceptable, was TA97 (100-170), TA98 (20-40) and TA100 (80-150).

[7] = duration of treatment 0.5 months
[8] = duration of treatment 1.0 months
[9] = duration of treatment 2.0 months
[10] = duration of treatment 3.0 months
[11] = duration of treatment 4.0 months
[12] = duration of treatment 5.0 months

COC(=O)C[C@](O)(CCCC(C)(C)O)C(=O)O[C@@H]1C(OC)=C[C@]23CCCN2CCc2cc4c(cc2[C@H]13)OCO4 [HHT, Homoharringtonine]
Tumor incidence (%) [1]: 35.8 ± 4.5% | Apoptosis (%) ([2]; HHT 10 ng/ml): 33.8 ± 4.8 % | Apoptosis (%) ([2]; HHT 50 ng/ml): 42.8 ± 5.2 % | Apoptosis (%) ([2]; HHT 100 ng/ml): 60.2 ± 8.9 % | Apoptosis (%) ([2]; HHT 500 ng/ml): 92.0 ± 10.8 % | Apoptosis (%) ([2]; Table 4, HHT (50 ng/ml) alone or in combination): 42.8 ± 5.2% | % Aberrant cells (mean ± SEM) [3, 7]: 0.5 ± 0.1% | Aberration/100 cells, Chromosome Breaks [3, 7]: 0.1 /100 cells | % Aberrant cells (mean ± SEM) [3, 8]: 0.8 ± 0.2% | Aberration/100 cells, Chromosome Breaks [3, 8]: 0.5 /100 cells | % Aberrant cells (mean ± SEM) [3, 9]: 1.2 ± 0.4% | Aberration/100 cells, Chromosome Breaks [3, 9]: 0.7 /100 cells | Aberration/100 cells, Chromosome Exchanges [3, 9]: 0.1 /100 cells | % Aberrant cells (mean ± SEM) [3, 10]: 1.8 ± 0.7% | Aberration/100 cells, Chromosome Breaks [3, 10]: 0.9 /100 cells | % Aberrant cells (mean ± SEM) [3, 11]: 2.6 ± 0.8% | Aberration/100 cells, Chromosome Breaks [3, 11]: 1.2 /100 cells | Aberration/100 cells, Chromosome Exchanges [3, 11]: 0.1 /100 cells | % Aberrant cells (mean ± SEM) [3, 12]: 5.5 ± 0.5% | Aberration/100 cells, Chromosome Breaks [3, 12]: 1.3 /100 cells | Aberration/100 cells, Chromosome Exchanges [3, 12]: 0.2 /100 cells | Inhibition (%) of carcinogen-DNA binding [4]: 56.8 ± 6.2% | NBT (%) [5]: 65 ± 7.0 % | Number of His^+ revertants/plate ([6]; TA100 +S, 0.1 μg/plate): 158 revertants/plate | Number of His^+ revertants/plate ([6]; TA100 +S, 1 μg/plate): 152 revertants/plate | Number of His^+ revertants/plate ([6]; TA100 +S, 10 μg/plate): 165 revertants/plate | Number of His^+ revertants/plate ([6]; TA100 +S, 100 μg/plate): 160 revertants/plate | Number of His^+ revertants/plate ([6]; TA100 −S, 0.1 μg/plate): 148 ± 12 revertants/plate | Number of His^+ revertants/plate ([6]; TA100 −S, 1 μg/plate): 140 ± 13 revertants/plate | Number of His^+ revertants/plate ([6]; TA100 −S, 10 μg/plate): 162 ± 17 revertants/plate | Number of His^+ revertants/plate ([6]; TA100 −S, 100 μg/plate): 158 ± 15 revertants/plate
